pIC50: −log10 of the molar value.
tested on: A431 cells/TMD8 cells; assay: Proliferation inhibitory activity against cell lines expressing BTK and EGFR, comparison of selectivity; format: cell-based, human; details: cells cultured three days with compound, CELLTITER GLO
Description: TMD8 cells, which are of a diffuse large B-cell lymphoma cell line expressing BTK, were suspended in RPMI1640 medium (Life Technologies Corp.) containing 10% fetal bovine serum. A431 cells, which are of an EGFR-overexpressing, highly activated human epidermoid carcinoma cell line, were suspended in DMEM, high glucose medium (Life Technologies Corp.) containing 10% fetal bovine serum. The cell suspensions were inoculated into each well of 384-well flat-bottomed microplates, and the cells were cultured for one day at 37° C. in an incubator containing 5% carbon dioxide gas. […] A DMSO solution of the test compounds was diluted with the medium used in the suspension of the each cell, and this was added to each of the wells of the cell culture plates such that the final concentration of DMSO would be 0.2%. The cells were further cultured for three days at 37° C. in an incubator containing 5% carbon dioxide gas. […] Proliferation inhibition ratio (%)=(C−T)/(C−C0)×100
T: Luminescence intensity of a well in which the test compound was added
C: Luminescence intensity of a well in which the test compound was not added
C0: Luminescence intensity of a well measured before the addition of the test compound
When a comparison is made between the cell proliferation inhibitory activity against A431 cells that depends on the EGFR proliferation signaling and the cell proliferation inhibitory activity against TMD8 cells that depends on the BTK proliferation signaling, the influence of the respective kinases at a cellular level is able to be evaluated. That is, when the “A431 cell proliferation inhibition ratio/TMD8 cell proliferation inhibition ratio” is calculated, it is contemplated that as the value of the ratio is larger, the selectivity to BTK over EGFR in the cells is higher.

Question: With `C=CC(=O)N1CCC[C@@H](n2nc(C(=O)Nc3nc4cc(Br)ccc4o3)c3c(N)ncnc32)C1` [Example 2, (R)-1-(1-acryloylpiperidin-3-yl)-4-amino-N-(5-bromobenzo[d]oxazol-2-yl)-1H-pyrazolo[3,4-d]pyrimidine-3-carboxamide] as the molecule, how does the “A431 cell proliferation inhibition ratio/TMD8 cell proliferation inhibition ratio” value read?
Answer: >1033.6

Question: How did the “A431 cell proliferation inhibition ratio/TMD8 cell proliferation inhibition ratio” value turn out when `CCN(C)C/C=C/C(=O)N1CCC[C@@H](n2nc(C(=O)Nc3nc4cc(Cl)ccc4o3)c3c(N)ncnc32)C1` [Example 16, (R,E)-4-amino-N-(5-chlorobenzo[d]oxazol-2-yl)-1-(1-(4-(ethyl(methyl)amino)but-2-enoyl)piperidin-3-yl)-1H-pyrazolo[3,4-d]pyrimidine-3-carboxamide] was run?
Answer: >16313.2

Question: With `CCN(CC)C/C=C/C(=O)N1CCC[C@@H](n2nc(C(=O)Nc3nc4cc(Cl)ccc4o3)c3c(N)ncnc32)C1` [Example 17, (R,E)-4-amino-N-(5-chlorobenzo[d]oxazol-2-yl)-1-(1-(4-(diethylamino)but-2-enoyl)piperidin-3-yl)-1H-pyrazolo[3,4-d]pyrimidine-3-carboxamide] as the molecule, how does the “A431 cell proliferation inhibition ratio/TMD8 cell proliferation inhibition ratio” value read?
Answer: >12345.7

Question: `CC(C)N(C)C/C=C/C(=O)N1CCC[C@@H](n2nc(C(=O)Nc3nc4cc(Cl)ccc4o3)c3c(N)ncnc32)C1` [Example 18, (R,E)-4-amino-N-(5-chlorobenzo[d]oxazol-2-yl)-1-(1-(4-(isopropyl(methyl)amino)but-2-enoyl)piperidin-3-yl)-1H-pyrazolo[3,4-d]pyrimidine-3-carboxamide] was tested. Which “A431 cell proliferation inhibition ratio/TMD8 cell proliferation inhibition ratio” value did it give?
Answer: >15625.0

Question: For `Nc1ncnc2c1c(C(=O)Nc1nc3cc(Cl)ccc3o1)nn2[C@@H]1CCCN(C(=O)/C=C/CN2CCCC2)C1` [Example 19, (R,E)-4-amino-N-(5-chlorobenzo[d]oxazol-2-yl)-1-(1-(4-(pyrrolidin-1-yl)but-2-enoyl)piperidin-3-yl)-1H-pyrazolo[3,4-d]pyrimidine-3-carboxamide], which “A431 cell proliferation inhibition ratio/TMD8 cell proliferation inhibition ratio” value is on record?
Answer: >17825.3

Question: How did the “A431 cell proliferation inhibition ratio/TMD8 cell proliferation inhibition ratio” value turn out when `Nc1ncnc2c1c(C(=O)Nc1nc3cc(Cl)ccc3o1)nn2[C@@H]1CCCN(C(=O)/C=C/CN2CCCCC2)C1` [Example 20, (R,E)-4-amino-N-(5-chlorobenzo[d]oxazol-2-yl)-1-(1-(4-(piperidin-1-yl)but-2-enoyl)piperidin-3-yl)-1H-pyrazolo[3,4-d]pyrimidine-3-carboxamide] was run?
Answer: >19120.5

Question: `C=CC(=O)N1CCC[C@@H](n2nc(C(=O)Nc3nc4cc(C)c(C)cc4o3)c3c(N)ncnc32)C1` [Example 23, (R)-1-(1-acryloylpiperidin-3-yl)-4-amino-N-(5,6-dimethylbenzo[d]oxazol-2-yl)-1H-pyrazolo[3,4-d]pyrimidine-3-carboxamide] was tested. Which “A431 cell proliferation inhibition ratio/TMD8 cell proliferation inhibition ratio” value did it give?
Answer: >10680

Question: Which “A431 cell proliferation inhibition ratio/TMD8 cell proliferation inhibition ratio” value does the source give for `CN(C)C/C=C/C(=O)N1CC[C@@H](n2nc(C(=O)Nc3nc4cc(Cl)ccc4o3)c3c(N)ncnc32)C1` [Example 32, (R,E)-4-amino-N-(5-chlorobenzo[d]oxazol-2-yl)-1-(1-(4-(dimethylamino)but-2-enoyl)pyrrolidin-3-yl)-1H-pyrazolo[3,4-d]pyrimidine-3-carboxamide] here?
Answer: >11123.5

Question: How did the “A431 cell proliferation inhibition ratio/TMD8 cell proliferation inhibition ratio” value turn out when `CCN(CC)C/C=C/C(=O)N1CC[C@@H](n2nc(C(=O)Nc3nc4cc(Cl)ccc4o3)c3c(N)ncnc32)C1` [Example 34, (R,E)-4-amino-N-(5-chlorobenzo[d]oxazol-2-yl)-1-(1-(4-(diethylamino)but-2-enoyl)pyrrolidin-3-yl)-1H-pyrazolo[3,4-d]pyrimidine-3-carboxamide] was run?
Answer: >22471.9

Question: `CC(C)N(C)C/C=C/C(=O)N1CC[C@@H](n2nc(C(=O)Nc3nc4cc(Cl)ccc4o3)c3c(N)ncnc32)C1` [Example 35, (R,E)-4-amino-N-(5-chlorobenzo[d]oxazol-2-yl)-1-(1-(4-(isopropyl(methyl)amino)but-2-enoyl)pyrrolidin-3-yl)-1H-pyrazolo[3,4-d]pyrimidine-3-carboxamide] was tested. Which “A431 cell proliferation inhibition ratio/TMD8 cell proliferation inhibition ratio” value did it give?
Answer: >18691.6

Question: For `C=CC(=O)N1CC[C@@H](n2nc(C(=O)Nc3nc4cc(C#N)ccc4o3)c3c(N)ncnc32)C1` [Example 39, (R)-1-(1-acryloylpyrrolidin-3-yl)-4-amino-N-(5-cyanobenzo[d]oxazol-2-yl)-1H-pyrazolo[3,4-d]pyrimidine-3-carboxamide], which “A431 cell proliferation inhibition ratio/TMD8 cell proliferation inhibition ratio” value is on record?
Answer: >3510.0

Question: How did the “A431 cell proliferation inhibition ratio/TMD8 cell proliferation inhibition ratio” value turn out when `C=CC(=O)N1CC[C@@H](n2nc(C(=O)Nc3nc4cc(CCOC)ccc4o3)c3c(N)ncnc32)C1` [Example 40, (R)-1-(1-acryloylpyrrolidin-3-yl)-4-amino-N-(5-(2-methoxyethyl)benzo[d]oxazol-2-yl)-1H-pyrazolo[3,4-d]pyrimidine-3-carboxamide] was run?
Answer: >3159.6

Question: With `CN(C)C/C=C/C(=O)N1CC[C@@H](n2cc(C(=O)Nc3nc4cc(Cl)ccc4o3)c3c(N)ncnc32)C1` [Example 49, (R,E)-4-amino-N-(5-chlorobenzo[d]oxazol-2-yl)-7-(1-(4-(dimethylamino)but-2-enoyl)pyrrolidin-3-yl) 7H-pyrrolo[2,3-d]pyrimidine-5-carboxamide] as the molecule, how does the “A431 cell proliferation inhibition ratio/TMD8 cell proliferation inhibition ratio” value read?
Answer: >3260.5

Question: `CCN(C)C/C=C/C(=O)N1CC[C@@H](n2cc(C(=O)Nc3nc4cc(Cl)ccc4o3)c3c(N)ncnc32)C1` [Example 50, (R,E)-4-amino-N-(5-chlorobenzo[d]oxazol-2-yl)-7-(1-(4-(ethyl(methyl)amino)but-2-enoyl)pyrrolidin-3-yl) 7H-pyrrolo[2,3-d]pyrimidine-5-carboxamide] was tested. Which “A431 cell proliferation inhibition ratio/TMD8 cell proliferation inhibition ratio” value did it give?
Answer: >2767.8

Question: With `CCN(CC)C/C=C/C(=O)N1CC[C@@H](n2cc(C(=O)Nc3nc4cc(Cl)ccc4o3)c3c(N)ncnc32)C1` [Example 51, (R,E)-4-amino-N-(5-chlorobenzo[d]oxazol-2-yl)-7-(1-(4-(diethylamino)but-2-enoyl)pyrrolidin-3-yl) 7H-pyrrolo[2,3-d]pyrimidine-5-carboxamide] as the molecule, how does the “A431 cell proliferation inhibition ratio/TMD8 cell proliferation inhibition ratio” value read?
Answer: >2044.6

Question: `CC(C)N(C)C/C=C/C(=O)N1CC[C@@H](n2cc(C(=O)Nc3nc4cc(Cl)ccc4o3)c3c(N)ncnc32)C1` [Example 52, (R,E)-4-amino-N-(5-chlorobenzo[d]oxazol-2-yl)-7-(1-(4-(isopropyl(methyl)amino)but-2-enoyl)pyrrolidin-3-yl) 7H-pyrrolo[2,3-d]pyrimidine-5-carboxamide] was tested. Which “A431 cell proliferation inhibition ratio/TMD8 cell proliferation inhibition ratio” value did it give?
Answer: >3617.9

Question: Which “A431 cell proliferation inhibition ratio/TMD8 cell proliferation inhibition ratio” value does the source give for `Nc1ncnc2c1c(C(=O)Nc1nc3cc(Cl)ccc3o1)cn2[C@@H]1CCN(C(=O)/C=C/CN2CCCC2)C1` [Example 53, (R,E)-4-amino-N-(5-chlorobenzo[d]oxazol-2-yl)-7-(1-(4-(pyrrolidin-1-yl)but-2-enoyl)pyrrolidin-3-yl) 7H-pyrrolo[2,3-d]pyrimidine-5-carboxamide] here?
Answer: >1535.4

Question: For `Nc1ncnc2c1c(C(=O)Nc1nc3cc(Cl)ccc3o1)cn2[C@@H]1CCN(C(=O)/C=C/CN2CCCCC2)C1` [Example 54, (R,E)-4-amino-N-(5-chlorobenzo[d]oxazol-2-yl)-7-(1-(4-(piperidin-1-yl)but-2-enoyl)pyrrolidin-3-yl) 7H-pyrrolo[2,3-d]pyrimidine-5-carboxamide], which “A431 cell proliferation inhibition ratio/TMD8 cell proliferation inhibition ratio” value is on record?
Answer: >2675.9

target: T1, recombinant human BTK protein (Homo sapiens, UniProt Q06187); assay: Measurement of BTK inhibitory activity (in vitro); format: biochemical; details: ATP 45 μM, 40 minutes at 25° C.
T1 construct: purchased Carna Biosciences, Inc
Description: Regarding the setting of the conditions for a method for measuring the inhibitory activity of a compound against BTK kinase activity in vitro, it is described in the consumable reagent supplies price list for LabChip (registered trademark) series of PerkinElmer, Inc. that FL-PEPTIDE 2 corresponds to a substrate peptide for the measurement of BTK kinase activity. Therefore, FL-PEPTIDE 2 was used as a substrate. The purified recombinant human BTK protein used in the test was purchased from Carna Biosciences, Inc.
Regarding the measurement of the inhibitory activity of the compounds, firstly, the compounds of the present invention were diluted stepwise with DMSO. Subsequently, BTK protein, a substrate peptide (final concentration was 1 μM), magnesium chloride (final concentration was 10 mM), ATP (final concentration was 45 μM), and a DMSO solution of the compounds of the present invention (final concentration of DMSO was 5%) were added to a buffer solution for kinase reaction (20 mM HEPES (pH 7.5), 2 mM dithiotheitol, 0.01% Triton X-100), and after the solution was incubated for 40 minutes at 25° C., a kinase reaction was carried out. The reaction was terminated by adding EDTA thereto so as to obtain a final concentration of 30 mM. Finally, a substrate peptide that was not phosphorylated (S) and a phosphorylated peptide (P) were separated and detected by microchannel capillary electrophoresis with a LabChip EZ Reader II (PerkinElmer, Inc.).

T1 sequence (Q06187 whole entry): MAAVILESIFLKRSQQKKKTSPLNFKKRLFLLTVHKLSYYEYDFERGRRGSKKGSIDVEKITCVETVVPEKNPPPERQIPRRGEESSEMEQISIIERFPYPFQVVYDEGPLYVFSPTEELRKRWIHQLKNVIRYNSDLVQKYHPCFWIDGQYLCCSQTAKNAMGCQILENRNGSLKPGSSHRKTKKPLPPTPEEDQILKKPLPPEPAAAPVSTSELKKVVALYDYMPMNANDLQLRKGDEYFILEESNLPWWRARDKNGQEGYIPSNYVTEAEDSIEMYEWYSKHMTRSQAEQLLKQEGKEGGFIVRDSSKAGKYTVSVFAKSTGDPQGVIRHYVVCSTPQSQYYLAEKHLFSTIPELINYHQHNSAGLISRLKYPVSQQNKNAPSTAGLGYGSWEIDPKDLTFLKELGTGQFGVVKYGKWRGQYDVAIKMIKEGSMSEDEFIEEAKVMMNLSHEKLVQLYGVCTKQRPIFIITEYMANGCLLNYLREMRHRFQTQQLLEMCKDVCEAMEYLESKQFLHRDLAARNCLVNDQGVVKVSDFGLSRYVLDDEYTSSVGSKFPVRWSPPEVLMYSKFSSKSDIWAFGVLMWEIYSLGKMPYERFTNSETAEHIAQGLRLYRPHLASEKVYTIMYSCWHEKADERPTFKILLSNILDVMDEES

Question: With `C=CC(=O)N1CCC[C@@H](n2nc(C(=O)Nc3nc4cc(OC)ccc4o3)c3c(N)ncnc32)C1` [Example 7, (R)-1-(1-acryloylpiperidin-3-yl)-4-amino-N-(5-methoxybenzo[d]oxazol-2-yl)-1H-pyrazolo[3,4-d]pyrimidine-3-carboxamide] as the molecule, how does the pIC50 read?
Answer: 9.34

Question: With `CC#CC(=O)N1CCC[C@@H](n2nc(C(=O)Nc3nc4ccccc4o3)c3c(N)ncnc32)C1` [Example 22] as the molecule, how does the pIC50 read?
Answer: 7.85

Question: `C=CC(=O)N1CC[C@@H](n2nc(C(=O)Nc3nc4ccccc4o3)c3c(N)ncnc32)C1` [Example 27, (R)-1-(1-acryloylpyrrolidin-3-yl)-4-amino-N-(benzo[d]oxazol-2-yl)-1H-pyrazolo[3,4-d]pyrimidine-3-carboxamide] was tested. Which pIC50 did it give?
Answer: 8.84

From US9782412B2, “Preventive and/or therapeutic agent of immune disease” (TAIHO PHARMACEUTICAL CO., LTD., priority 2015, dated 2017)
